Broadly, the IC50 is the concentration needed to halve the response being measured. A lower IC50 goes with greater potency.

SMILES strings stand for the structures.

Assay [1] has as its target EBOV VP35_75-185 (native, non GFP-tagged) (Ebola virus - Mayinga, Zaire, 1976, UniProt Q05127). It is filed as binding.
Assay [2] addresses GFP 10M2/11M4 EBOV VP35_75-185 (EBOV VP35 oligomerization domain) (Ebola virus - Mayinga, Zaire, 1976, UniProt Q05127). Briefly: biochemical. It is filed as binding.

Chain of GFP 10M2/11M4 EBOV VP35_75-185 (EBOV VP35 oligomerization domain) (Q05127 75-185 limits assumed): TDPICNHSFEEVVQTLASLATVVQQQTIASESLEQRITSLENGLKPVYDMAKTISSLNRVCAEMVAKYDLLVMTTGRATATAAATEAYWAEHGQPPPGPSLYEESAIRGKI
Chain of EBOV VP35_75-185 (native, non GFP-tagged) (Q05127 75-185 limits assumed): as above

With `O=c1c(O)c(-c2cc(O)c(O)c(O)c2)oc2cc(O)cc(O)c12` [Myricetin], in assay [1], the “Tm at 100 μM compound (70.8 at 0 μM)” value is 73.5 °C. Moreover, the IC50 in assay [2] came out at 64.4 µM.
For the molecule `Brc1c(Br)c(Br)c2[nH]nnc2c1Br` [TBBT, 4,5,6,7-Tetrabromobenzotriazole], in assay [1], the “Tm at 100 μM compound (70.8 at 0 μM)” value was determined as 66.9 °C. Moreover, it took 32.5 µM to reach half-maximal inhibition in assay [2] (IC50).

The values above are taken from paper PMC9619376 (iScience, 2022).
